Experimental data from US20140363830A1, “COMPOUNDS THAT MODULATE HSP90 ACTIVITY AND METHODS FOR IDENTIFYING SAME” (SYNTA PHARMACEUTICALS CORP., priority 2006, published 2014).

Columns and labels:
c-kit [1] = assay: FACS-based c-kit degradation assay in HEL92.1.7 cells; type: cell-based; settings: about 18 h
Protocol: (§1) Two leukemia cell lines, HEL92.1.7 and Kasumi-1, were used for testing c-kit degradation induced by Hsp90 inhibitors of the invention. […] The cells were collected and centrifuged (SORVALL RT 6000D) at 1200 rpm for 5 min. The supernatants were discarded, and the cells were washed one time with 1×PBS. After centrifugation the cells were stained with FITC conjugated c-kit antibody (MBL International, Cat #K0105-4) in 100 ml 1×PBS at 4° C. for 1 h. The samples were read and analysized with FACSCalibur flow cytometer (Becton Dicknson).

c-kit [2] = assay: FACS-based c-kit degradation assay in Kasumi-1 cells; type: cell-based; settings: about 18 h
Protocol: as §1

[3] = test system: RERF-LC-AI^IVP human lung tumor cells; assay: RERF-LC-AI^IVP nude mouse xenograft model; type: in vivo
Protocol: The human squamous non-small cell lung cancer cell line, RERF-LC-AI (RCB0444; S. Kyoizumi, et al., Cancer. Res. 45:3274-3281, 1985), was obtained from the Riken Cell Bank (Tsukuba, Ibaraki, Japan). […] FBS was obtained from American Type Culture Collection (Manassas, Va., USA) and all other reagents were obtained from Invitrogen Corp. (Carlsbad, Calif., USA). Approximately 4-5×10(6) cells that had been cryopreserved in liquid nitrogen were rapidly thawed at 37° C. and transferred to a 175 cm^2 tissue culture flask containing 50 ml of growth media and then incubated at 37° C. in a 5% CO2 incubator.
(§2) The growth media was replaced every 2-3 days until the flask became 90% confluent, typically in 5-7 days. To passage and expand the cell line, a 90% confluent flask was washed with 10 ml of room temperature phosphate buffered saline (PBS) and the cells were disassociated by adding 5 ml 1× trypsin-EDTA (Invitrogen) and incubating at 37° C. until the cells detached from the surface of the flask. To inactivate the trypsin, 5 ml of growth media was added and then the contents of the flask were centrifuged to pellet the cells. The supernatant was aspirated and the cell pellet was resuspended in 10 ml of growth media and the cell number determined using a hemocytometer. Approximately 1−3×10(6) cells per flask were seeded into 175 cm^2 flasks containing 50 ml of growth media and incubated at 37° C. in a 5% CO2 incubator. When the flasks reached 90% confluence, the above passaging process was repeated until sufficient cells had been obtained for implantation into mice.
Seven to eight week old, female Crl:CD-1-nuBR (nude) mice were obtained from Charles River Laboratories (Wilmington, Mass., USA) Animals were housed 4-5/cage in micro-isolators, with a 12 hr/12 hr light/dark cycle, acclimated for at least 1 week prior to use and fed normal laboratory chow ad libitum. Studies were conducted on animals between 8 and 12 weeks of age at implantation. […] Using a 27 gauge needle and 1 cc syringe, 0.1 ml of the cell suspension was injected subcutaneously into the flank of each nude mouse. Tumor volumes (V) were calculated by caliper measurement of the width (W), length (L) and thickness (T) of tumors using the following formula: V=0.5236×(L×W×T).
In vivo passaged RERF-LC-AI tumor cells (RERF-LC-AI^IVP) were isolated to improve the rate of tumor implantation relative to the parental cell line in nude mice. RERF-LC-AI tumors were permitted to develop in vivo until they reached approximately 250 mm^3 in volume, which required approximately 3 weeks following implantation. Mice were euthanized via CO2 asphyxiation and their exteriors sterilized with 70% ethanol in a laminar flow hood. Using sterile technique, tumors were excised and diced in 50 ml PBS using a scalpel blade. A single cell suspension was prepared using a 55 ml Wheaton Safe-Grind tissue grinder (catalog #62400-358; VWR International, West Chester, Pa., USA) by plunging the pestle up and down 4-5 times without twisting. The suspension was strained through a […] nylon cell strainer and then centrifuged to pellet the cells. The resulting pellet was resuspended in 0.1 M NH4Cl to lyse contaminating red blood cells and then immediately centrifuged to pellet the cells. The cell pellet was resuspended in growth media and seeded into 175 cm^2 flasks containing 50 ml of growth media at 1-3 tumors/flask or approximately 10×10(6) cells/flask. […]

Her2 = assay: Degradation of Her2 in BT-474 cells (Western blot); type: cell-based, Human; settings: for Her2 degradation: overnight
Protocol: Human high-Her2 breast carcinoma BT474 (HTB-20), SK-BR-3 (HTB-30) and MCF-7 breast carcinoma (HTB-22) from American Type Culture Collection, VA, USA were grown in Dulbecco's modified Eagle's medium with 4 mM L-glutamine and antibiotics (100 IU/ml penicillin and 100 ug/ml streptomycine; GibcoBRL). To obtain exponential cell growth, cells were trypsinized, counted and seeded at a cell density of 0.5×10^6 cells/ml regularly, every 3 days. All experiments were performed on day 1 after cell passage.
After treatment, each cytoplasmic sample was prepared from 1×10^6 cells by incubation of cell lysis buffer (#9803, cell Signaling Technology) on ice for 10 minutes. The resulting supernatant used as the cytosol fractions were dissolved with sample buffer for SDS-PAGE and run on a SDS-PAGE gel, blotted onto a nitrocellulose membrane by using semi-dry transfer. Non-specific binding to nitrocellulose was blocked with 5% skim milk in TBS with 0.5% Tween at room temperature for 1 hour, then probed with anti-Her2/ErB2 mAb (rabbit IgG, #2242, Cell Signaling) and anti-Tubulin (T9026, Sigma) as housekeeping control protein. HRP-conjugated goat antirabbit IgG (H+L) and HRP-conjugated horse antimouse IgG (H+L) were used as secondary Ab (#7074, #7076, Cell Signaling) and LumiGLO reagent, 20× Peroxide (#7003, Cell Signaling) was used for visualization.

[4] = test system: human tumor cell line MDA-MB-435S; assay: MDA-MB-435S nude mouse xenograft model; type: in vivo; settings: 300 mg/kg body weight IP, 5 days per week for 3 weeks
Protocol: as §2, with “FBS was obtained from Sigma-Aldrich Corp. (St. Louis, Mo., USA), and all other reagents were obtained from Invitrogen Corp. (Carlsbad, Calif., USA). Approximately 4-5×10(6) cells that had been cryopreserved in liquid nitrogen were rapidly thawed at 37° C. and transferred to a 175 cm^2 tissue culture flask containing 50 ml of growth media and then incubated at 37° C. in a 5% CO2 incubator. The growth” for “The growth”, “ml 1× Trypsin-EDTA (Invitrogen) and” for “ml 1× trypsin-EDTA (Invitrogen) and”, “hemocytometer. Approximately 1-3×10(6) cells per” for “hemocytometer. Approximately 1−3×10(6) cells per”
Six to eight week old, female Crl:CD-1-nuBR (nude) mice were obtained from Charles River Laboratories (Wilmington, Mass., USA) Animals were housed 4-5/cage in micro-isolators, with a 12 hr/12 hr light/dark cycle, acclimated for at least 1 week prior to use and fed normal laboratory chow ad libitum. Studies were conducted on animals between 7 and 12 weeks of age at implantation. […] Tumor volumes (V) were calculated by caliper measurement of the width (W), length (L) and thickness (T) of tumors using the following formula: V=[…]×(L×W×T) Animals were randomized into treatment groups so that the average tumor volumes of each group were similar at the start of dosing. […]

c-kit [5] = assay: Western blot analysis of c-Kit in Kasumi-1 cells; type: cell-based
Description: The results of the FACS analysis were confirmed with Western blot analysis (see FIG. 5). […] In contrast, 17-AAG had no effect of c-Kit protein levels.

Hsp90 protein = assay: Malachite Green assay of ATPase activity of Hsp90 protein; type: biochemical; settings: 37° C., 4 hours
Protocol: Hsp90 protein was obtained from Stressgen (Cat#SPP-770). Assay buffer: 100 mM Tris-HCl, Ph7.4, 20 mM KCl, 6 mM MgCl2. […] Malachite green reagent was added to the reaction. […] The plate was read by an ELISA reader with an absorbance at 620 nm.

[6] = 200 mg/kg body weight i.p., 5 days per week, 15 doses

SMILES	c-kit degradation (c-kit [1]; 0.05 μM)	c-kit degradation (c-kit [1]; 0.5 μM)	c-kit degradation (c-kit [2]; 0.05 μM)	c-kit degradation (c-kit [2]; 0.5 μM)	Her2 degradation (Her2; 0.5 μM)	Her2 degradation (Her2; 2 μM)	Her2 degradation (Her2; 5 μM)	further results
CCc1cc(-c2nnc(S)n2-c2ccc(OC)c3c2ccn3C(C)C)c(O)cc1O [Compound 188, 3-(2,4-Dihydroxy-5-ethyl-phenyl)-4-(1-isopropyl-7-methoxy-indol-4-yl)-5-mercapto-[1,2,4]triazole]	induced c-kit degradation	induced c-kit degradation	induced c-kit degradation	induced c-kit degradation	–	–	–	effect on body weights [3, 6]: minimal effect on body weights; growth rate of RERF-LC-AI^IVP human lung tumor cells in nude mice [3, 6]: decreased the growth rate; maximum tolerated dose in nude mice ([3]; mouse, in vivo, ip): ~200 mg/kg body weight
CCc1cc(-c2nnc(S)n2-c2cccc3ccccc23)c(O)cc1O [Compound 49, 3-(2,4-Dihydroxy-5-ethyl-phenyl)-4-(naphthalen-1-yl)-5-mercapto-[1,2,4]triazole]	–	–	–	–	partial degradated	complete degradation	complete degradation	Activity in Her2 degradation relative to Compound 108 (Her2): even more active than Compound 108; effect on body weights [4]: lack of an effect on body weights; toxicity [4]: not associated with significant toxicity; growth rate of MDA-MB-435S cells in nude mice ([4]; compared with 100 mg/kg 17-AAG): decreased the growth rate of MDA-MB-435S cells in nude mice to a greater extent than did a dose of 100 mg/kg body weight of the Hsp90 inhibitor 17-AAG
CC(C)c1cc(-c2nnc(S)n2-c2ccc3c(ccn3C)c2)c(O)cc1O [Compound 221, 3-(2,4-dihydroxy-5-isopropyl-phenyl)-4-(N-methyl-indol-5-yl)-5-mercapto-[1,2,4]triazole]	induced c-kit degradation	induced c-kit degradation	induced c-kit degradation	induced c-kit degradation	–	–	–	degradation of c-Kit (Western blot) (c-kit [5]; 100 nM): induced the degradation of c-Kit; degradation of c-Kit (Western blot) (c-kit [5]; 400 nM): induced the degradation of c-Kit
Oc1ccc(-c2nnc(S)n2-c2cccc3ccccc23)c(O)c1 [Compound 108, 3-(2,4-Dihydroxy-phenyl)-4-(naphthalen-1-yl)-5-mercapto-[1,2,4]triazole]	–	–	–	–	partially degradated	partially degradated	almost completely degraded	ATPase activity of Hsp90 (Hsp90 protein; 4 μM): significant inhibition; ATPase activity of Hsp90 (Hsp90 protein; 40 μM): even greater inhibition of ATPase activity of Hsp90 than geldanamycin
C=CCNC1=C2C[C@@H](C)C[C@H](OC)[C@H](O)[C@@H](C)/C=C(\C)[C@H](OC(N)=O)[C@@H](OC)/C=C\C=C(/C)C(=O)NC(=CC1=O)C2=O [Compound 17-AAG, 17-allylamino-17-demethoxygeldanamycin, reference compound]	–	could not induce c-kit degradation	–	could not induce c-kit degradation	–	–	–	c-Kit protein levels (Western blot) (c-kit [5]; concentration not given): had no effect; growth rate of RERF-LC-AI^IVP human lung tumor cells in nude mice ([3]; 75 mg/kg body weight i.p., 5 days per week, 15 doses): decreased the growth rate; maximum tolerated dose in nude mice ([3]; i.p., 5 times per week): ~75 mg/kg body weight
